# Measured values published in publication PMC11701928, “Co-crystal structure of Helicobacter pylori biotin protein ligase with biotinyl-5-ATP” (Acta Crystallographica Section F: Structural Biology …, 2025).
# Molecular target: T1, HpBPL (Helicobacter pylori, UniProt B5Z8D8)
# T1 construct: gene HPG27_1085
# T1 sequence (B5Z8D8 1-212): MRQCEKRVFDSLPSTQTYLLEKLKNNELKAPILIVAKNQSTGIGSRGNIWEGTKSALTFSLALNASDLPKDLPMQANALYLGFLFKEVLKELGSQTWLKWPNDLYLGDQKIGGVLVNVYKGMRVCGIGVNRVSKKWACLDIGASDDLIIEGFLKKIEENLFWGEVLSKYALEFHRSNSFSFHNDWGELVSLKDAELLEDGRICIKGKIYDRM
# Test: turnover to biotinyl-5-ATP seen in crystal structure
# Format: biochemical
# Conditions: 10 min
smiles,measurement,setting,value
Nc1ncnc2c1ncn2[C@@H]1O[C@H](COP(=O)(O)OP(=O)(O)OP(=O)(O)O)[C@@H](O)[C@H]1O [ATP],turnover to biotinyl-5-ATP seen in crystal structure,"6 mM ATP with 6 mM biotin and 6 mM MgCl2, 25 °C","catalytically active and generates biotinyl-5-ATP upon incubation with MgCl2, ATP and biotin"
O=C(O)CCCC[C@@H]1SC[C@@H]2NC(=O)N[C@@H]21 [biotin],turnover to biotinyl-5-ATP seen in crystal structure,"6 mM biotin with 6 mM ATP and 6 mM MgCl2, 25 °C","catalytically active and generates biotinyl-5-ATP upon incubation with MgCl2, ATP and biotin"
